Results as given in ChEMBL document CHEMBL5230160, “Chemotherapeutics for Toxoplasma gondii: Molecular Biotargets, Binding Modes, and Structure-Activity Relationship Investigations” (J Med Chem, 2021).
Converted amounts (≈) assume the structure as drawn. Blank lines part the entries; values can stand above or below the molecule they belong to.

Assays:
[1] = AUC in mouse at 15 mg/kg; assay type: ADME, organism-based; set-up: dose 15 mg/kg; settings: in vivo
Toxoplasma gondii [2] = assay: Antiparasitic activity against Toxoplasma gondii tachyzoites infected in human foreskin fibroblast
[3] = Inhibition of Toxoplasma gondii CDPK1
Toxoplasma gondii [4] = assay: Antiparasitic activity against Toxoplasma gondii RH tachyzoites infected in human Hs68 cells assessed as parasitic growth inhibition by crystal violet staining based assay; assay type: functional, organism-based
[5] = Toxicity in BALB/c mouse infected with Toxoplasma gondii RH tachyzoites assessed as mortality […]; settings: in vivo
[6] = Selectivity index, ratio of CC50 for cytotoxicity against HFF cells to IC50 for antiparasitic activity against Toxoplasma gondii infected in HFF cells; assay type: toxicity, cell-based; settings: human; read-out: Ratio CC50/IC50
Toxoplasma gondii [7] = assay: Antiparasitic activity against Toxoplasma gondii infected in HFF cells assessed as parasitic growth inhibition incubated for 24 hrs by MTS/PMS assay; assay type: functional, organism-based
[8] = Inhibition of Toxoplasma gondii HDAC3
Toxoplasma gondii [9] = assay: Antiparasitic activity against Toxoplasma gondii infected in HFF cells assessed as parasitic growth inhibition by MTT assay; assay type: functional, organism-based
[10] = Selectivity index, ratio of IC50 for inhibition of Toxoplasma gondii HDAC3 to IC50 for antiparasitic activity against Toxoplasma gondii infected in HFF cells; assay type: toxicity, cell-based; settings: human
Toxoplasma gondii [11] = assay: Antiparasitic activity against Toxoplasma gondii RH tachyzoites infected in mouse BV-2 cells assessed as parasitic growth inhibition at 100 ug/ml by inverted fluorescence microscopic analysis relative to control; assay type: functional; set-up: scale not given: the % may be the effect or the level left; settings: dose 100 µg/ml
[12] = Inhibition of Toxoplasma gondii ATM
Toxoplasma gondii [13] = assay: Antiparasitic activity against wild-type Toxoplasma gondii RH tachyzoites infected in HFF cells assessed as parasitic growth inhibition by fluorescence based analysis; assay type: functional, organism-based
[14] = Inhibition of Toxoplasma gondii recombinant PNP
[15] = molecular target: T1, Purine nucleoside phosphorylase (Homo sapiens, UniProt P00491); assay: Inhibition of human recombinant PNP
T1 sequence (P00491 whole entry): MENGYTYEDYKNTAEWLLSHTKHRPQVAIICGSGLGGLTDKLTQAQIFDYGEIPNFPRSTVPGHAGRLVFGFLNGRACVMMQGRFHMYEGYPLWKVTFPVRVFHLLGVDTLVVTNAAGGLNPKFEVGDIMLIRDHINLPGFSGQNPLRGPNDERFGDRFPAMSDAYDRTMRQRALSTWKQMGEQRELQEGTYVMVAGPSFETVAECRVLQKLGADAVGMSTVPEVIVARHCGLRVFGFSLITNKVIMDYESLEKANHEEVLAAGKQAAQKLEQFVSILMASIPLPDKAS

Toxoplasma gondii [16] = assay: Antiparasitic activity against Toxoplasma gondii type II infected in human foreskin fibroblast incubated for 24 hrs by Hoechst staining based microscopic analysis; assay type: functional, organism-based
Histone deacetylase 1 = Histone deacetylase 1 (Homo sapiens, UniProt Q13547); assay: Inhibition of HDAC1 in human HeLa nuclear extract incubated for 30 mins by fluorescence based analysis; assay type: cell-free
Toxoplasma gondii [17] = assay: Antiparasitic activity against Toxoplasma gondii type I infected in human foreskin fibroblast incubated for 24 hrs by Hoechst staining based microscopic analysis; assay type: functional, organism-based
Toxoplasma gondii [18] = assay: Antiparasitic activity against Toxoplasma gondii RH tachyzoites infected in HFF cells in presence of CPRG by crystal violet staining based analysis; assay type: functional, organism-based
[19] = Inhibition of Toxoplasma gondii GST-taggged IF2Kalpha in presence of ATP by ADP-Glo kinase assay
Dihydrofolate reductase = molecular target: T2, Dihydrofolate reductase (Homo sapiens, UniProt P00374); assay: Inhibition of human DHFR
T2 sequence (P00374 whole entry): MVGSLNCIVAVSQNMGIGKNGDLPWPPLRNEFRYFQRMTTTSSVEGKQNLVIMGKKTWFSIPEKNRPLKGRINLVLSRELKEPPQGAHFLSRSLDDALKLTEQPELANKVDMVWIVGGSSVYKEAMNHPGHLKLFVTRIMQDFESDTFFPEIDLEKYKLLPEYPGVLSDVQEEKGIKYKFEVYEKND

[20] = Inhibition of Toxoplasma gondii DHFR
Toxoplasma gondii [21] = assay: Antiparasitic activity against Toxoplasma gondii infected in mouse at 50 mg/kg assessed as reduction in parasitic growth; assay type: functional; set-up: scale not given: the % may be the effect or the level left
Toxoplasma gondii [22] = assay: Antiparasitic activity against Toxoplasma gondii tachyzoites; assay type: functional, organism-based; settings: Toxoplasma gondii; read-out: EC50
Toxoplasma gondii [23] = assay: Antiparasitic activity against Toxoplasma gondii tachyzoites infected in KM mouse assessed as assessed as reduction in parasitic growth at 100 mg/kg administered once daily via gavage for 4 days (reference value: 2250000); assay type: functional; settings: time 4 day
HeLa = assay: Cytotoxicity against human HeLa cells assessed as cell growth inhibition measured after 24 hrs by MTT assay; assay type: functional, cell-based; settings: Homo sapiens, HeLa, 24 h
Toxoplasma gondii [24] = assay: Antiparasitic activity against Toxoplasma gondii tachyzoites infected in human HeLa cells measured after 24 hrs by MTT assay; assay type: functional, organism-based; settings: Toxoplasma gondii, HeLa, 24 h
[25] = Selectivity index, ratio of IC50 for cytotoxicity against human HeLa cells to IC50 for antiparasitic activity against Toxoplasma gondii tachyzoites infected in human HeLa cells; assay type: toxicity, cell-based; settings: read-out: Ratio IC50
Toxoplasma gondii [26] = assay: Antiparasitic activity against Toxoplasma gondii; assay type: functional, organism-based

Chain of Histone deacetylase 1 (Q13547 whole entry): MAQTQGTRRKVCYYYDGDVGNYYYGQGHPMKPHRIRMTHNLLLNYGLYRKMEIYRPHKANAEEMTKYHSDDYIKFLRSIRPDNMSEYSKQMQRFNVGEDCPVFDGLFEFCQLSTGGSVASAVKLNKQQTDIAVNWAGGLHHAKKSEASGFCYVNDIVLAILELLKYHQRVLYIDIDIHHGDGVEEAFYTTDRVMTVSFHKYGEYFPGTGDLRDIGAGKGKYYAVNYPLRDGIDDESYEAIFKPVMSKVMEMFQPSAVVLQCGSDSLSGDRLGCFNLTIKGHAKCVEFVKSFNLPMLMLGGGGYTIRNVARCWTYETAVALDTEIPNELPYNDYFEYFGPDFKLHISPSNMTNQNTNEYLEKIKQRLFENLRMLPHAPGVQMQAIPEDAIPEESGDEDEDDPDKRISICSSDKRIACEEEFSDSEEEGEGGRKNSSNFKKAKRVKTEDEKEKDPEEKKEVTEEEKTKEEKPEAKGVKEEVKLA

SMILES: CCOc1ccc2cc(-c3nn(CC4CCN(C)CC4)c4ncnc(N)c34)ccc2c1
AUC [1]: 480 µM/min | EC50 (Toxoplasma gondii [2]): 140 nM | IC50 [3]: 20 nM

SMILES: O=C(CCCCCN1C(=O)c2cccc3cccc(c23)C1=O)NO
IC50 (Toxoplasma gondii [4]): 39 nM

SMILES: COc1ccc(C2C(C(=O)OCCCc3ccccn3)=C(C)NC3=C2C(=O)CCC3)cc1 (centres undefined)
mortality [5]: 75%

SMILES: COc1ccc(OC)c(NCc2ccc3nc(N)nc(N)c3c2Cl)c1
selectivity ratio [6]: 275 | IC50 (Toxoplasma gondii [7]): 20 nM

SMILES: CC1=C(C(=O)OCc2cccnc2)C(c2ccc(Br)cc2)C2=C(CCCC2=O)N1 (centres undefined)
mortality [5]: 13%

SMILES: CC[C@]1(C)NC(=O)[C@H](CCCCCC(=O)[C@@H](C)O)NC(=O)[C@H]2CCCN2C(=O)[C@H](Cc2ccccc2)NC1=O
IC50 [8]: 22 nM

SMILES: CC[C@]1(C)NC(=O)[C@H](CCCCCC(=O)[C@@H](C)OC(=S)Oc2ccccc2)NC(=O)[C@H]2C[C@H](C)CN2C(=O)[C@H](Cc2ccccc2)NC1=O
EC50 (Toxoplasma gondii [9]): 11.3 nM | Ratio IC50 [10]: 47.7

SMILES: CC(C)=CCC[C@](C)(O)[C@H]1CC[C@]2(C)[C@@H]1[C@H](O)C[C@@H]1[C@@]3(C)CC[C@H](O[C@@H]4O[C@H](CO)[C@@H](O)[C@H](O)[C@H]4O)C(C)(C)[C@@H]3CC[C@]12C [GINSENOSIDE RH2]
Activity (Toxoplasma gondii [11]): 63.4%

SMILES: O=c1cc(-c2cccc3c2Sc2ccccc2S3)oc(N2CCOCC2)c1 [KU-55933]
IC50 [12]: 0.0129 µM | IC50 (Toxoplasma gondii [13]): 2.15 µM

IC50 [15]: 0.9 nM
SMILES: O=c1[nH]cnc2c([C@H]3C[C@H](O)[C@@H](CO)N3)c[nH]c12
IC50 [14]: 190 nM

IC50 [15]: 4.6 nM
SMILES: O=c1[nH]cnc2c([C@@H]3N[C@H](CF)[C@@H](O)[C@H]3O)c[nH]c12
IC50 [14]: 20 nM

SMILES: CC(C)(C)[C@H]1CC[C@H](CC2=C(O)C(=O)c3ccccc3C2=O)CC1 [BUPARVAQUONE]
selectivity ratio [6]: 86.8 | IC50 (Toxoplasma gondii [7]): 100 nM

SMILES: COc1cccc(CC(=O)Nc2ccc(C(=O)NO)cc2)c1
IC50 (Toxoplasma gondii [16]): 2270 nM | IC50 (Histone deacetylase 1): 0.495 µM | IC50 (Toxoplasma gondii [17]): 350 nM

SMILES: Cn1cc(-c2ccc3c(c2)CCN3C(=O)Cc2cccc(C(F)(F)F)c2)c2c(N)ncnc21
IC50 (Toxoplasma gondii [18]): 620 nM | IC50 [19]: 0.4 nM

IC50 (Dihydrofolate reductase): 26 nM
SMILES: COc1ccc(OC)c(CN(C)c2cnc3nc(N)nc(N)c3c2)c1
IC50 [20]: 29 nM

SMILES: COc1cc(C2C(C(=O)OCc3cccnc3)=C(C)NC3=C2C(=O)CCC3)cc(OC)c1OC (centres undefined)
mortality [5]: 63%

IC50 (Histone deacetylase 1): 6.68 µM
SMILES: COc1ccccc1CNC(=O)c1ccc(C(=O)NO)cc1

SMILES: CC1=C(C(=O)OCc2cccnc2)C(c2cccc(O)c2)C2=C(CCCC2=O)N1 (centres undefined)
mortality [5]: 14%

SMILES: C/C=C/c1cc(OC)c2c(c1)[C@@H](C)[C@H](c1ccc3c(c1)OCO3)O2 [LICARINE B]
Activity (Toxoplasma gondii [21]): 90% | EC50 (Toxoplasma gondii [22]): 14 µg/mL (≈ 43.3 µM)

SMILES: C[C@H]1[C@H](C)CC[C@]2(C(=O)OCCn3cnnc3-c3ccc([N+](=O)[O-])cc3)CC[C@]3(C)C(=CC[C@@H]4[C@@]5(C)CC[C@H](O)C(C)(C)[C@H]5CC[C@]43C)[C@H]12
Activity (Toxoplasma gondii [23]): 666000 | IC50 (HeLa): 227 µM | IC50 (Toxoplasma gondii [24]): 128 µM | selectivity ratio [25]: 1.77

SMILES: CCCCCCCCCCCCc1cc(=O)c2ccccc2n1O
IC50 (Toxoplasma gondii [26]): 0.16 nM

SMILES: Cn1c(=O)c2c(ncn2C)n(C)c1=O [CAFFEINE]
IC50 [12]: 1100 µM | IC50 (Toxoplasma gondii [13]): 370 µM
